According to ChEMBL document CHEMBL1201862, “PubChem BioAssay data set” (2004):
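Briefly, cells in 96-well plates were exposed to five compound concentrations for 48 h, and endpoints were estimated by linear interpolation. GI50 = concentration required for 50% inhibition of growth.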 Activity calls are given as the source filed them. Rule as the data show it: active = GI50 up to about 1.1 µM and inactive = higher. Where a SMILES comes first, the peptide text is derived from it. The star is where a group is joined. Boc = CC(C)(C)OC(=O)*

Tests used:
Assay in all cases: NCI anticancer screen, dose series, 48 h
[1] = tested on: DU-145
[2] = tested on: TK-10
[3] = tested on: HCC 2998
[4] = tested on: OVCAR-8
[5] = tested on: OVCAR-5
[6] = tested on: 786-0
[7] = tested on: M14
[8] = tested on: MDA-N
[9] = tested on: NCI-H460
[10] = tested on: OVCAR-4
[11] = tested on: SR
[12] = tested on: UACC-257
[13] = tested on: A498
[14] = tested on: Malme-3M
[15] = tested on: HL-60
[16] = tested on: MOLT-4
[17] = tested on: NCI-H522
[18] = tested on: CCRF-CEM
[19] = tested on: ACHN
[20] = tested on: BT-549
[21] = tested on: SK-MEL-28
[22] = tested on: HOP-62
[23] = tested on: HCT-15
[24] = tested on: SK-MEL-2
[25] = tested on: K562
[26] = tested on: SNB-19
[27] = tested on: A549
[28] = tested on: UO-31
[29] = tested on: SF-268
[30] = tested on: UACC-62
[31] = tested on: HT-29
[32] = tested on: MDA-MB-231
[33] = tested on: CAKI-1
[34] = tested on: MCF7
[35] = tested on: SW-620
[36] = tested on: LOX IMVI
[37] = tested on: IGROV-1
[38] = tested on: HCT-116
[39] = tested on: SNB-75
[40] = tested on: RPMI-8226
[41] = tested on: MDA-MB-435
[42] = tested on: SK-MEL-5
[43] = tested on: NCI-H226
[44] = tested on: PC-3
[45] = tested on: SN12C
[46] = tested on: OVCAR-3
[47] = tested on: U-251
[48] = tested on: NCI-H23
[49] = tested on: SF-295
[50] = tested on: KM12
[51] = tested on: NCI/ADR-RES
[52] = tested on: RXF 393
[53] = tested on: Hs-578T
[54] = tested on: T47D
[55] = tested on: EKVX
[56] = tested on: SK-OV-3
[57] = tested on: HOP-92
[58] = tested on: SF-539

Question: What does the source list for `COC(=O)C(Cc1c[nH]c2ccccc12)NC(=O)C(Cc1c[nH]c2ccccc12)NC(=O)C(Cc1c[nH]c2ccccc12)NC(=O)C(Cc1c[nH]c2ccccc12)NC(=O)C(Cc1c[nH]c2ccccc12)NC(=O)C(Cc1c[nH]c2ccccc12)NC(=O)C(Cc1c[nH]c2ccccc12)NC(=O)C(Cc1c[nH]c2ccccc12)NC(=O)OC(C)(C)C` (centres undefined) (Boc-WWWWWWWW-OMe; configuration not given here)?
Answer: GI50 [1]: 35.5 µM (inactive); GI50 [2]: 34 µM (inactive); GI50 [3]: > 100 µM (inactive); GI50 [4]: > 100 µM (inactive); GI50 [5]: 37.8 µM (inactive); GI50 [6]: > 100 µM (inactive); GI50 [7]: 12.6 µM (inactive); GI50 [8]: 39.1 µM (inactive); GI50 [9]: 67.6 µM (inactive); GI50 [10]: > 100 µM (inactive); GI50 [11]: 59.7 µM (inactive); GI50 [12]: 43.5 µM (inactive); GI50 [13]: 20 µM (inactive); GI50 [14]: 53.2 µM (inactive); GI50 [15]: 24.8 µM (inactive); GI50 [16]: 44.5 µM (inactive); GI50 [17]: 17.4 µM (inactive); GI50 [18]: 34.4 µM (inactive); GI50 [19]: > 100 µM (inactive); GI50 [20]: > 100 µM (inactive); GI50 [21]: 33.3 µM (inactive); GI50 [22]: > 100 µM (inactive); GI50 [23]: > 100 µM; GI50 [24]: 33.6 µM (inactive); GI50 [25]: 31.8 µM (inactive); GI50 [26]: 46.2 µM (inactive); GI50 [27]: 86.5 µM (inactive); GI50 [28]: 53.7 µM (inactive); GI50 [29]: > 100 µM (inactive); GI50 [30]: 28.5 µM (inactive); GI50 [31]: > 100 µM (inactive); GI50 [32]: > 100 µM (inactive); GI50 [33]: > 100 µM (inactive); GI50 [34]: > 100 µM (inactive); GI50 [35]: > 100 µM (inactive); GI50 [36]: 63.5 µM (inactive); GI50 [37]: 19.8 µM (inactive); GI50 [38]: 15.3 µM (inactive); GI50 [39]: > 100 µM (inactive); GI50 [40]: 57.9 µM (inactive); GI50 [41]: > 100 µM (inactive); GI50 [42]: 24.3 µM (inactive); GI50 [43]: 49.3 µM (inactive); GI50 [44]: 65.5 µM (inactive); GI50 [45]: 72.8 µM (inactive); GI50 [46]: 83.6 µM (inactive); GI50 [47]: 74.6 µM (inactive); GI50 [48]: 29 µM (inactive)

Question: Which results are given for `COC(=O)/C(C)=N/N=C(\S)SC`?
Answer: GI50 [1]: 24.3 µM (inactive); GI50 [49]: 40.2 µM (inactive); GI50 [50]: 52.5 µM (inactive); GI50 [2]: 95.5 µM (inactive); GI50 [3]: 40.6 µM (inactive); GI50 [4]: 36.4 µM (inactive); GI50 [5]: 80.2 µM (inactive); GI50 [51]: 30 µM (inactive); GI50 [6]: 35.9 µM (inactive); GI50 [7]: 23.2 µM (inactive); GI50 [8]: 77.1 µM (inactive); GI50 [9]: 26.9 µM (inactive); GI50 [10]: 46.3 µM (inactive); GI50 [11]: 49.7 µM (inactive); GI50 [12]: 50.9 µM (inactive); GI50 [52]: 16.7 µM (inactive); GI50 [53]: 28.8 µM (inactive); GI50 [54]: 18.1 µM (inactive); GI50 [13]: > 100 µM (inactive); GI50 [15]: 0.105 µM (active); GI50 [16]: 55.1 µM (inactive); GI50 [17]: 22.7 µM (inactive); GI50 [18]: 0.0428 µM (active); GI50 [19]: 34.1 µM (inactive); GI50 [21]: 44.5 µM (inactive); GI50 [22]: > 100 µM (inactive); GI50 [23]: 36.7 µM; GI50 [55]: > 100 µM (inactive); GI50 [24]: 31 µM (inactive); GI50 [25]: 75 µM (inactive); GI50 [56]: > 100 µM (inactive); GI50 [28]: 36.7 µM (inactive); GI50 [29]: 21.8 µM (inactive); GI50 [31]: 17.3 µM (inactive); GI50 [57]: > 100 µM (inactive); GI50 [32]: 46.6 µM (inactive); GI50 [33]: 35.2 µM (inactive); GI50 [34]: 35.4 µM (inactive); GI50 [35]: 44.3 µM (inactive); GI50 [36]: 37.2 µM (inactive); GI50 [37]: 47.5 µM (inactive); GI50 [38]: 31.6 µM (inactive); GI50 [58]: 82.6 µM (inactive); GI50 [40]: 66.4 µM (inactive); GI50 [41]: 60.5 µM (inactive); GI50 [42]: 29.2 µM (inactive); GI50 [43]: > 100 µM (inactive); GI50 [44]: 36.5 µM (inactive); GI50 [46]: 24.8 µM (inactive); GI50 [47]: 38.5 µM (inactive); GI50 [48]: 45.6 µM (inactive)
